# Experimental data as given in PubChem BioAssay (NCI).
#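 In this assay, cells in 96-well plates receive the compound at five concentrations for 48 hours. Endpoints are linearly interpolated between the surrounding concentrations. GI50 = concentration required for 50% inhibition of growth. The concentration for full growth arrest is given as TGI.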
# Key:
# Assay in all cases: inhibition of tumour cell growth, NCI panel, 48 h
# [1] = system: MCF7 breast
# [2] = system: MOLT-4 leukemia
# [3] = system: SK-MEL-2 melanoma
# [4] = system: OVCAR-3 ovarian
# [5] = system: A498 renal
# [6] = system: HOP-62 NSCLC
# [7] = system: RPMI-8226 leukemia
# [8] = system: HCT-116 colon
# [9] = system: SF-295 CNS
# [10] = system: T-47D breast
# [11] = system: UACC-62 melanoma
# [12] = system: SK-OV-3 ovarian
# [13] = system: SNB-19 CNS
# [14] = system: COLO 205 colon
# [15] = system: U251 CNS
# [16] = system: K-562 leukemia
# [17] = system: CCRF-CEM leukemia
# [18] = system: SK-MEL-5 melanoma
# [19] = system: MALME-3M melanoma
# [20] = system: RXF 393 renal
# [21] = system: SNB-75 CNS
# [22] = system: SK-MEL-28 melanoma
# [23] = system: NCI/ADR-RES ovarian
# [24] = system: HCC-2998 colon
# [25] = system: HT29 colon
# [26] = system: DU-145 prostate
# [27] = system: MDA-MB-435
# [28] = system: OVCAR-4 ovarian
# [29] = system: SF-268 CNS
# [30] = system: M14 melanoma
# [31] = system: TK-10 renal
# [32] = system: HCT-15 colon
# [33] = system: NCI-H226 lung
# [34] = system: HS 578T breast
# [35] = system: MDA-MB-231 breast
# [36] = system: OVCAR-8 ovarian
# [37] = system: SN12C renal
# [38] = system: A549 NSCLC
# [39] = system: SR leukemia
# [40] = system: IGROV1 ovarian
# [41] = system: SF-539 CNS
# [42] = system: EKVX NSCLC
# [43] = system: UO-31 renal
# [44] = system: KM12 colon
# [45] = system: OVCAR-5 ovarian
# [46] = system: SW-620 colon
# [47] = system: CAKI-1 renal
# [48] = system: 786-0 renal
# [49] = system: HOP-92 NSCLC
# [50] = system: BT-549 breast
# [51] = system: UACC-257 melanoma
# [52] = system: NCI-H522 lung
# [53] = system: ACHN renal
# [54] = system: NCI-H23 lung
# [55] = system: PC-3 prostate
# [56] = system: LOX IMVI melanoma
# [57] = system: HL-60(TB) leukemia
# [58] = system: NCI-H460 lung
smiles,measurement,setting,value
Cc1nc(C(=O)OCc2ccccc2)cc(OCc2ccccc2)c1C,GI50,[1],18.3 µM
same,TGI,[1],43.2 µM
same,GI50,[2],0.517 µM
same,TGI,[2],7.53 µM
same,GI50,[3],26.4 µM
same,TGI,[3],> 84.5 µM
same,GI50,[4],11.4 µM
same,TGI,[4],26.2 µM
same,GI50,[5],27.9 µM
same,TGI,[5],> 85.6 µM
same,GI50,[6],19.9 µM
same,TGI,[6],40.7 µM
same,GI50,[7],20.9 µM
same,TGI,[7],> 72.7 µM
same,GI50,[8],13.6 µM
same,TGI,[8],32.6 µM
same,GI50,[9],19.7 µM
same,TGI,[9],46.8 µM
same,GI50,[10],18.8 µM
same,TGI,[10],> 100 µM
same,GI50,[11],11 µM
same,TGI,[11],24.8 µM
same,GI50,[12],> 89 µM
same,TGI,[12],> 100 µM
same,GI50,[13],27.8 µM
same,TGI,[13],> 82.8 µM
same,GI50,[14],22.6 µM
same,TGI,[14],65.1 µM
same,GI50,[15],17.6 µM
same,TGI,[15],48.2 µM
same,GI50,[16],8.8 µM
same,TGI,[16],36.8 µM
same,GI50,[17],20.5 µM
same,TGI,[17],62.1 µM
same,GI50,[18],10.7 µM
same,TGI,[18],26 µM
same,GI50,[19],24.4 µM
same,TGI,[19],52.1 µM
same,GI50,[20],13.5 µM
same,TGI,[20],28 µM
same,GI50,[21],17.5 µM
same,TGI,[21],39.4 µM
same,GI50,[22],15.5 µM
same,TGI,[22],29.8 µM
same,GI50,[23],14.1 µM
same,TGI,[23],37.4 µM
same,GI50,[24],20.5 µM
same,TGI,[24],54.1 µM
same,GI50,[25],13.1 µM
same,TGI,[25],29.3 µM
same,GI50,[26],17 µM
same,TGI,[26],41.4 µM
same,GI50,[27],18.5 µM
same,TGI,[27],> 54.6 µM
same,GI50,[28],11.8 µM
same,TGI,[28],33.6 µM
same,GI50,[29],17.5 µM
same,TGI,[29],41.6 µM
same,GI50,[30],19.8 µM
same,TGI,[30],40.3 µM
same,GI50,[31],50.4 µM
same,TGI,[31],> 100 µM
same,GI50,[32],18.6 µM
same,TGI,[32],> 60.6 µM
same,GI50,[33],19.1 µM
same,TGI,[33],46.9 µM
same,GI50,[34],18.6 µM
same,TGI,[34],47.9 µM
same,GI50,[35],14.6 µM
same,TGI,[35],34.9 µM
same,GI50,[36],21.9 µM
same,TGI,[36],69.2 µM
same,GI50,[37],17.5 µM
same,TGI,[37],35.4 µM
same,GI50,[38],19.3 µM
same,TGI,[38],49.4 µM
same,TGI,[39],28.6 µM
same,GI50,[40],21.4 µM
same,TGI,[40],47.7 µM
same,GI50,[41],18.1 µM
same,TGI,[41],35.2 µM
same,GI50,[42],19.3 µM
same,TGI,[42],52.7 µM
same,GI50,[43],18.3 µM
same,TGI,[43],39 µM
same,GI50,[44],29 µM
same,TGI,[44],> 87.6 µM
same,GI50,[45],21.8 µM
same,TGI,[45],51.6 µM
same,GI50,[46],17.8 µM
same,TGI,[46],44.2 µM
same,GI50,[47],32.6 µM
same,TGI,[47],> 100 µM
same,GI50,[48],21.2 µM
same,TGI,[48],50.9 µM
same,GI50,[49],14.7 µM
same,TGI,[49],30.8 µM
same,GI50,[50],17.9 µM
same,TGI,[50],34.2 µM
same,GI50,[51],18.8 µM
same,TGI,[51],38.3 µM
same,GI50,[52],15.5 µM
same,TGI,[52],37 µM
same,GI50,[53],20.9 µM
same,TGI,[53],60.2 µM
same,GI50,[54],15.3 µM
same,TGI,[54],36.8 µM
same,GI50,[55],21 µM
same,TGI,[55],> 69.8 µM
same,GI50,[56],17.1 µM
same,TGI,[56],36 µM
same,GI50,[57],1.53 µM
same,TGI,[57],25 µM
same,GI50,[58],22.7 µM
same,TGI,[58],54.5 µM
CCN(CC)c1ccc(/C=N/N=C(N)N)cc1,GI50,[1],2.62 µM
same,TGI,[1],14.8 µM
same,GI50,[2],4.95 µM
same,TGI,[2],35.7 µM
same,GI50,[3],2.85 µM
same,TGI,[3],8.33 µM
same,GI50,[4],2.21 µM
same,TGI,[4],4.91 µM
same,GI50,[5],2.25 µM
same,TGI,[5],21.9 µM
same,GI50,[6],4.65 µM
same,TGI,[6],21.3 µM
same,GI50,[7],2.84 µM
same,TGI,[7],13.3 µM
same,GI50,[8],4.85 µM
same,TGI,[8],18.5 µM
same,GI50,[9],3.59 µM
same,TGI,[9],15.8 µM
same,GI50,[10],3.76 µM
same,TGI,[10],24.5 µM
same,GI50,[11],4.23 µM
same,TGI,[11],18.1 µM
same,GI50,[12],3.47 µM
same,TGI,[12],14 µM
same,GI50,[13],3.57 µM
same,TGI,[13],23.8 µM
same,GI50,[14],1.79 µM
same,TGI,[14],3.51 µM
same,GI50,[15],5.49 µM
same,TGI,[15],23.4 µM
same,GI50,[16],3.02 µM
same,TGI,[16],16.4 µM
same,GI50,[17],3.5 µM
same,TGI,[17],67.7 µM
same,GI50,[18],3.16 µM
same,TGI,[18],13.4 µM
same,GI50,[19],4.45 µM
same,TGI,[19],18.7 µM
same,GI50,[20],2.85 µM
same,TGI,[20],11.7 µM
same,GI50,[21],3.74 µM
same,TGI,[21],> 100 µM
same,GI50,[22],6.27 µM
same,TGI,[22],20.3 µM
same,GI50,[23],5.44 µM
same,TGI,[23],29.8 µM
same,GI50,[24],4.68 µM
same,TGI,[24],17.3 µM
same,GI50,[25],3.24 µM
same,TGI,[25],10.8 µM
same,GI50,[26],4.3 µM
same,TGI,[26],28.2 µM
same,GI50,[27],0.668 µM
same,TGI,[27],3.04 µM
same,GI50,[28],5.74 µM
same,TGI,[28],39.5 µM
same,GI50,[29],5.43 µM
same,TGI,[29],82.5 µM
same,GI50,[30],4 µM
same,TGI,[30],17 µM
same,GI50,[31],7.87 µM
same,TGI,[31],28.4 µM
same,GI50,[32],4.76 µM
same,TGI,[32],55.8 µM
same,GI50,[33],3.84 µM
same,TGI,[33],22.8 µM
same,GI50,[34],3.68 µM
same,TGI,[34],26.5 µM
same,GI50,[35],10.9 µM
same,TGI,[35],32.6 µM
same,GI50,[36],5.06 µM
same,TGI,[36],23.5 µM
same,GI50,[37],4.88 µM
same,TGI,[37],27.2 µM
same,GI50,[38],4.99 µM
same,TGI,[38],> 100 µM
same,GI50,[39],2.03 µM
same,TGI,[39],15 µM
same,GI50,[40],8.11 µM
same,TGI,[40],55.1 µM
same,GI50,[41],5.06 µM
same,TGI,[41],30.5 µM
same,GI50,[42],7.59 µM
same,TGI,[42],93.8 µM
same,GI50,[43],6.78 µM
same,TGI,[43],38.9 µM
same,GI50,[44],3.47 µM
same,TGI,[44],16.4 µM
same,GI50,[45],17.1 µM
same,TGI,[45],> 100 µM
same,GI50,[46],3.08 µM
same,TGI,[46],13.6 µM
same,GI50,[47],6.73 µM
same,TGI,[47],> 100 µM
same,GI50,[48],6.2 µM
same,TGI,[48],20.7 µM
same,GI50,[49],2.27 µM
same,TGI,[49],13.5 µM
same,GI50,[50],6.84 µM
same,TGI,[50],33.9 µM
same,GI50,[51],5.2 µM
same,TGI,[51],23.9 µM
same,GI50,[52],1.91 µM
same,TGI,[52],4.8 µM
same,GI50,[53],12.8 µM
same,TGI,[53],64.8 µM
same,GI50,[54],4.59 µM
same,TGI,[54],50.6 µM
same,GI50,[55],3.51 µM
same,TGI,[55],92.9 µM
same,GI50,[56],5.02 µM
same,TGI,[56],19.9 µM
same,GI50,[57],2.84 µM
same,TGI,[57],7.95 µM
same,GI50,[58],3.57 µM
same,TGI,[58],15.1 µM
